The text below walks through data of article PMC6689897, “Drugging an undruggable pocket on KRAS” (Proceedings of the National Academy of Sciences of the …, 2019).

One experiment concerns NCI-H358 cells. The experiment is described as follows: 2D proliferation assay. The class given is cell-based, human. The following applies: standard 2D culture conditions. As to the method:
263 (ATCC® CCL-224™; grown in RPMI 10% FCS) and SK-MEL-28 (ATCC® HTB-
264 72™, grown in EMEM 10% FCS). Cell cultures were incubated at 37 °C and 5% CO2 in
265 a humidified atmosphere, with medium change or subcultivation 2-3 times a week.
269 Cells were lysed in 1x lysis buffer (Cell Signaling #9803) and protein concentration
270 normalized to 10µg/µL. Proteins were separated by SDS-Page and transferred to
271 Nitrocellulose membranes (BioRad) according to standard protocols. Membranes were
273 (Milipore #06-182) and Tubulin (Cell Signaling #2144) in 5% BSA in TBST blocking
274 buffer. After primary antibody incubation membranes were incubated with anti-rabbit
275 IgG secondary antibody (Dako #P0448) and detected with ECL (GE Healthcare Life
278 Compound treatment of cells
279 Synthesized or purchased (ARS 1620) compounds were dissolved in 100% DMSO and
280 stored at a concentration of 10mM at -20°C. Compounds were either serially diluted in
281 medium or directly added to reach the intended final concentration. DMSO was added
282 to control reactions as reference to keep the final DMSO concentration in all samples
285 2D proliferation assay: […]
Quantification of living cells […]
291 manufacturer’s recommendation. Luminescence was read in a 2030 VICTOR X5 (Perkin […]
305 were trypsinized, counted and plated in 60 µL culture medium containing 2% FCS […]

Experiment [1] relates to 4 BRAF(v600E) cell lines (A375, RKO, Colo 201, SK-MEL-28). The experiment is described as follows: 2D and 3D proliferation in BRAF V600E control cell lines. As to conditions: low serum, soft agar, or high serum, adherent conditions. Format: cell-based, human. As for the experimental part:
217 The coordinates and structure factors of the structures have been deposited at the
218 Protein Data Bank with the accession codes PDB Code 6GJ5, 6GJ6, 6GJ7, 6GJ8.
221 Measurements of various protein–protein interactions were performed using the Alpha
222 Screen technology developed by Perkin Elmer. Recombinant RAS proteins (H-, N-, K-
223 RAS variants; all KRAS variants are based on KRAS isoform 4B (uniprot id P01116-2);
224 KRAS (G12D) 1-169, N-terminal 6His-tag, C-terminal avi-tag was from Xtal
225 BioStructures, Inc., KRAS (G12C) 1-169, C-terminal avi-tag, biotinylated, mutations:
226 C51S, C80L, C118S, NRAS(wt) 1-172, C-terminal avi-tag, biotinylated; HRAS(wt) 1-
227 166, C-terminal avi-tag, biotinylated). Biotinylation was performed in vitro with
228 recombinant BirA biotin-protein ligase as recommended by the manufacturer (Avidity
229 LLC, Aurora, Colorado, USA). Interacting proteins such as SOS1 (564-1049, N-terminal […]
231 PI3KA- RBD (160-317, N-term-HIS_GST-tag) were expressed as glutathione S […]
245 for 60 min in the dark at room temperature. Single oxygen induced fluorescence was
246 measured at an Enspire multimode plate reader (Perkin Elmer) according to the
247 manufacturer’s recommendations. Data were analyzed using the GraphPad Prism data […]
275 IgG secondary antibody (Dako #P0448) and detected with ECL (GE Healthcare Life […]

The structures appear in SMILES notation.

For the compound `Cn1cnc(Cn2ccc3ccc(CNCc4[nH]c5ccccc5c4[C@H]4NC(=O)c5ccc(O)cc54)cc32)c1` [Compound 1], the antiproliferative effect result (with NCI-H358 cells; in experiment [1]) was “No antiproliferative effect” in each case.
